Experimental data from patent US20250066347A1, “SUBSTITUTED THIAZOLIDINEDIONE DERIVATIVE COMPOUND, AND PHARMACEUTICAL COMPOSITION FOR PREVENTING OR TREATING CANCER, COMPRISING SAME” (MEDIFIC, INC., priority 2021, published 2025).

Tests used:
SREBP = assay: Cell-based assay system using a 6xSRE reporter vector (copGFP intensity) in HOG-GSC-6xSRE-copGFP_HIGH cells; set-up: dose or concentration left out as unconfirmed; settings: copGFP intensity normalized to DMSO control = 1, 72 hours
Description: First, as shown in (a) of FIG. 1, SRE(5′-ATCACCCCAC-3′) 6 copies which are DNA seCuences to which a transcription factor, SREBP active form bonds were inserted into a minimal CMV promoter 5′ front end of a pGreenfire-Lenti-reporter vector to produce a 6xSRE reporter vector. The 6xSRE reporter vector is a vector system in which a minimal CMV promoter is activated only when SREBP in an activated form bonds to 6xSRE and copGFP is expressed, and after the vector was introduced to HOG-GSC which is a brain tumor stem cell, separation into a GFP high cell and a GFP low cell through FACS sorting was performed. Each of SREBP1a and SREBP1c in an active form was overexpressed in separated GFP-low cells (b of FIG. 1), and it was measured therefrom whether the expression amount of GFP was increased. As a result, it was confirmed that the overexpression of SREBP1a and SREBP1c active forms increased GFP expression by 43.30% and 93.49%, in separated GFP-low cells (c of FIG. 1). The separated GFP-high cells were treated with each of fatostatin and FGH10019 known to inhibit activity of DMSO and SREBP which was a control group to measure a change in the expression amount of GFP, and, as a result, it was confirmed that when treated with known materials, fatostatin and FGH10019, the expression of GFP was inhibited by up to 50% (d of FIG. 1).
HOG-GSC-6xSRE-copGFP_HIGH cells were dispensed into a 96-well plate (Corning) at 5000/well, each well was treated […], and then all wells were photographed every 3 hours for 72 hours in an incubator (ThermoFisher) at […], 5% CO2, using real-time cell imaging equipment (Incucyte) to photograph changes in copGFP intensity.

HOG-GSC cells = assay: Comparison of cell viability in brain tumor stem cell (MTS assay); assay type: cell-based; settings: 72 hours, DMSO control = 1, value below 0.5 = viability decreased by 50% or more
Protocol: HOG-GSC cells which are brain tumor stem cells were treated with 11 compounds at 10 μM and DMSO as a control group, and the number of surviving cells after 72 hours was evaluated by MTS assay.
HOG-GSC which is a brain tumor stem cell was seeded on a 96-well plate at 5000 cells per well, and was cultured in an incubator (ThermoFisher) at 37° C. and 5% CO2 for 24 hours for stabilization of cells. Thereafter, it was treated with 11 compounds of the present invention at […] each, and treated with the same volume of DMSO as a control group as the volume of each compound. After treatment with the compound of the present invention and the control group, cells were cultured in an incubator at 37° C. and 5% CO2 for 72 hours. Thereafter, since there were many living cells in each well, cell viability was quantified using a cell viability assay kit (LPS solution) of which the color becomes darker with an increase in the number of cells. After treatment with the cell viability assay solution, a reaction was performed in an incubator at 37° C. and 5% CO2 for 3 hours to perform coloration, absorbance at 450 nm was measured using a microplate reader (BioTek), and an absorbance intensity of the control group was set to 1 and the absorbance of cells treated with each compound was normalized and is shown in FIG. 2.

SMILES | activity (SREBP) [%] | cell viability inhibition effect (normalized MTS value) (HOG-GSC cells)
CC(C)(C)c1ccc(-n2cccc2/C=C2\SC(=O)NC2=O)cc1 [Compound 3, (Z)-5-((1-(4-(tert-butyl)phenyl)-1H-pyrrol-2-yl)methylene) thiazolidine-2,4-dione] | 1 | significant cell viability inhibition effect
Cc1ccc(-c2cc(/C=C3\SC(=O)NC3=O)ccn2)cc1 [Compound 10, (Z)-5-((2-(p-tolyl)pyridin-4-yl)methylene)thiazolidine-2,4-dione] | 8.8 | significant cell viability inhibition effect
O=C1NC(=O)/C(=C/c2ccnc(-c3ccc(C(F)(F)F)cc3)c2)S1 [Compound 12, (Z)-5-((2-(4-(trifluoromethyl)phenyl)pyridin-4-yl)methylene) thiazolidine-2,4-dione] | 5.9 | significant cell viability inhibition effect
O=C1NC(=O)/C(=C/c2ccnc(-c3ccc(OC(F)(F)F)cc3)c2)S1 [Compound 14, (Z)-5-((2-(4-(trifluoromethoxy)phenyl)pyridin-4-yl)methylene) thiazolidine-2,4-dione] | 1.7 | significant cell viability inhibition effect
O=C1NC(=O)/C(=C/c2ccnc(-c3ccc(OCc4ccccc4)cc3)c2)S1 [Compound 15, (Z)-5-((2-(4-(benzyloxy)phenyl)pyridin-4-yl)methylene)thiazolidine-2,4-dione] | 8.6 | significant cell viability inhibition effect
CC(C)(C)c1cccc(-c2cc(/C=C3\SC(=O)NC3=O)ccn2)c1 [Compound 18, (Z)-5-((2-(3-(tert-butyl)phenyl)pyridin-4-yl)methylene)thiazolidine-2,4-dione] | 1.3 | significant cell viability inhibition effect
Cc1cc(C)cc(-c2cc(/C=C3\SC(=O)NC3=O)ccn2)c1 [Compound 19, (Z)-5-((2-(3,5-Dimethylphenyl)pyridin-4-yl)methylene)thiazolidine-2,4-dione] | 1.8 | significant cell viability inhibition effect
O=C1NC(=O)/C(=C/c2ccc(-c3ccc(OC(F)(F)F)cc3)nc2)S1 [Compound 25, (Z)-5-((6-(4-(trifluoromethoxy)phenyl)pyridin-3-yl)methylene) thiazolidine-2,4-dione] | 6.3 | significant cell viability inhibition effect
CC(C)(C)c1ccc(-c2cncc(/C=C3\SC(=O)NC3=O)c2)cc1 [Compound 28, (Z)-5-((5-(4-(tert-butyl)phenyl)pyridin-3-yl)methylene)thiazolidine-2,4-dione] | 4.8 | significant cell viability inhibition effect
CC(C)(C)c1ccc(-c2ccnc(/C=C3\SC(=O)NC3=O)c2)cc1 [Compound 31, (Z)-5-((4-(4-(tert-butyl)phenyl)pyridin-2-yl)methylene)thiazolidine-2,4-dione] | 4.5 | significant cell viability inhibition effect
